Data: patent US12410123B2, “N-[8-(2-hydroxybenzoyl)amino]potassium octanoate crystal polymorph, and preparation method therefor and use thereof” (SCIWIND BIOSCIENCES CO., LTD., priority 2020, dated 2025)

Experiments:
Format in all cases: physicochemical
[1] = Solution stability of different crystal forms of PNAC in aqueous solution (500 mg/mL); conditions: 500 mg/mL in purified water
Method: The stability differences between different salt forms and different crystal forms in aqueous solution under the condition of high concentration (500 mg/mL) were compared, and the results are shown in Table 5 (there is no difference in the dissolution and solution storage process of the samples of PNAC crystal forms I-IV).

[2] = Stability during preparation (grinding, tableting, airflow crushing; XRPD)
Excerpt: Three groups of solid samples were characterized by XRPD to evaluate their physical stability.

[3] = Solid-state stability of PNAC crystal forms (storage; XRPD and HPLC)
Method: The third group was kept under the conditions of 25° C. and 60% relative humidity for 2 weeks to obtain a solid sample, and then the three groups of solid samples were respectively evaluated for physical and chemical stability by XRPD and HPLC assay.
The purity of main peak was calculated by normalization method.

[4] = Airflow crushing (injection pressure 0.4 MPa, pulverization pressure 0.2 MPa)
[5] = solid, 60° C. for 24 h, 40° C. and 75% relative humidity for two weeks, 25° C. and 60% relative humidity for 2 weeks

Compound	storage time at which flocs began to appear in the solution ([1]; 4° C.) [h]	storage time at which flocs began to appear in the solution ([1]; room temperature) [h]	change of crystal form after grinding, tableting and airflow crushing (XRPD) [2]	crystal form after treatment (XRPD) [2, 4]	crystal form after treatment (XRPD) ([2]; Manual grinding (10 min))	crystal form after treatment (XRPD) ([2]; Tableting (pressure of 3 kN))	overall solid-state stability (conclusion from Table 15) [3]	crystal form after treatment (XRPD) ([3]; 25° C./60% RH, 2 W)	crystal form after treatment (XRPD) ([3]; 25° C./75% RH, 2 W)	crystal form after treatment (XRPD) ([3]; 60° C., 24 h)	crystal form after storage (XRPD) [3, 5]	relative purity (HPLC) after storage [3, 5] [%]
O=C([O-])CCCCCCCNC(=O)c1ccccc1O.[Na+] [SNAC, monosodium N-[8-(2-hydroxybenzoyl)amino]octanoate]	0.5	1										
O=C([O-])CCCCCCCNC(=O)c1ccccc1O.[K+] [crystal Form I, Potassium N-[8-(2-hydroxybenzoyl)amino]octanoate]			does not change	crystal Form I	crystal Form I	crystal Form I	very stable	crystal Form II	crystal Form II	crystal Form I		
O=C([O-])CCCCCCCNC(=O)c1ccccc1O.[K+] [crystal Form II, Potassium N-[8-(2-hydroxybenzoyl)amino]octanoate]			does not change	crystal Form II	crystal Form II	crystal Form II	very stable	crystal Form II	crystal Form II	crystal Form II	the crystal form has not changed	100
O=C([O-])CCCCCCCNC(=O)c1ccccc1O.[K+] [crystal Form III, Potassium N-[8-(2-hydroxybenzoyl)amino]octanoate]								crystal Form II	crystal Form II	crystal Form I		
O=C([O-])CCCCCCCNC(=O)c1ccccc1O.[K+] [crystal Form IV, Potassium N-[8-(2-hydroxybenzoyl)amino]octanoate]				crystal Form IV	crystal Form IV	crystal Form IV		crystal Form II	crystal Form II	crystal Form I		
